Format in all cases: functional, organism-based
One assay deals with Entamoeba histolytica. In words: Antiprotozoal activity against trophozoite stage of Entamoeba histolytica HM-1:IMSS assessed as growth inhibition after 48 hrs by haemocytometric analysis.
A further assay deals with Trichomonas vaginalis. In words: Antiprotozoal activity against trophozoite stage of Trichomonas vaginalis GT3 assessed as growth inhibition after 48 hrs by haemocytometric analysis. To be noted: GT3, 48 h.
A further assay deals with Giardia intestinalis. In words: Antiprotozoal activity against trophozoite stage of Giardia intestinalis IMSS:0981:1 assessed as growth inhibition after 48 hrs by haemocytometric analysis. To be noted: Giardia duodenalis, IMSS:0981:1, 48 h.

As usually defined, the IC50 is the concentration at which inhibition is half-maximal. As to `Cc1ncc([N+](=O)[O-])n1CCO` [METRONIDAZOLE], the IC50 in the assay on Entamoeba histolytica came out at 380 nM.

Turning to `CCOc1ccc2nc(SCCn3ccnc3)n(C)c2c1`, the IC50 in the assay with Trichomonas vaginalis was determined as 71.7 nM; in the assay on Entamoeba histolytica it was 40.8 nM; in the assay on Giardia intestinalis, 45.2 nM.

Take `CCOc1cc2nc(SCCn3ccnc3)[nH]c2cc1Cl`: the IC50 was 99.1 nM with Trichomonas vaginalis, 62 nM with Entamoeba histolytica and 46.5 nM with Giardia intestinalis.

Regarding `Cn1c(SCCn2ccnc2)nc2cc(Cl)ccc21`, the IC50 stood at 135 nM in the assay on Trichomonas vaginalis, 66 nM with Entamoeba histolytica and 66.6 nM with Giardia intestinalis.

Take `COC(=O)c1ccc2[nH]c(SCCn3ccnc3)nc2c1`: the IC50 was found to be 111 nM in the assay with Trichomonas vaginalis, 61.2 nM in the assay with Entamoeba histolytica and 77.7 nM in the assay with Giardia intestinalis.

`Clc1cc2nc(SCCn3ccnc3)[nH]c2cc1Cl`: the IC50 was 140 nM in the assay on Trichomonas vaginalis, 59.1 nM in the assay with Entamoeba histolytica and 76.6 nM with Giardia intestinalis.

As for `CCOc1ccc2[nH]c(SCCn3ccnc3)nc2c1`, the figures for the IC50 in the assay on Trichomonas vaginalis, in the assay on Entamoeba histolytica and in the assay with Giardia intestinalis were 71.7 nM, 42.8 nM and 56.6 nM, respectively.

On to `CCOc1ccc2c(c1)nc(SCCn1ccnc1)n2C`, for which the IC50 in the assay with Trichomonas vaginalis was determined as 76.1 nM; in the assay on Entamoeba histolytica it was 29.8 nM; in the assay with Giardia intestinalis it was 8.3 nM.

Consider `Cn1c(SCCn2ccnc2)nc2ccc(Cl)cc21`, for which the IC50 came to 128 nM with Trichomonas vaginalis, 67.2 nM in the assay with Entamoeba histolytica and 62.6 nM in the assay with Giardia intestinalis.

For `c1ccc2[nH]c(SCCn3ccnc3)nc2c1`, the IC50 in the assay on Trichomonas vaginalis was determined as 178 nM; in the assay on Entamoeba histolytica, 147 nM; with Giardia intestinalis, 117 nM.

As for `Cn1c(SCCn2ccnc2)nc2cc(Cl)c(Cl)cc21`, the IC50 in the assay on Trichomonas vaginalis is 96.3 nM; in the assay on Entamoeba histolytica, 64.2 nM; in the assay with Giardia intestinalis it was 68.8 nM.

As to `CCOc1cc2nc(SCCn3ccnc3)n(C)c2cc1Cl`, the IC50 with Trichomonas vaginalis was found to be 98 nM; in the assay on Entamoeba histolytica it was 14.8 nM; in the assay with Giardia intestinalis, 20.8 nM.

Regarding `COC(=O)c1cc2nc(SCCn3ccnc3)[nH]c2cc1Cl`, the figures for the IC50 with Trichomonas vaginalis, with Entamoeba histolytica and in the assay with Giardia intestinalis were 72.7 nM, 57.9 nM and 54.9 nM, respectively.

For `Clc1ccc2[nH]c(SCCn3ccnc3)nc2c1`, the IC50 with Trichomonas vaginalis is 170 nM; in the assay with Entamoeba histolytica, 73.5 nM; with Giardia intestinalis, 80.7 nM.

Take `Cn1c(SCCn2ccnc2)nc2ccccc21`: the IC50 came to 149 nM in the assay with Trichomonas vaginalis, 77.4 nM in the assay on Entamoeba histolytica and 87.1 nM in the assay on Giardia intestinalis.

Consider `COC(=O)c1ccc2c(c1)nc(SCCn1ccnc1)n2C`, for which the IC50 with Trichomonas vaginalis came out at 77.4 nM; with Entamoeba histolytica, 42.7 nM; in the assay on Giardia intestinalis it was 61.6 nM.

As for `CCOc1cc2c(cc1Cl)nc(SCCn1ccnc1)n2C`, the IC50 was found to be 69.8 nM with Trichomonas vaginalis, 46 nM with Entamoeba histolytica and 35.6 nM in the assay with Giardia intestinalis.

For the compound `COC(=O)c1cc2nc(SCCn3ccnc3)n(C)c2cc1Cl`, the IC50 with Trichomonas vaginalis is 92.6 nM; with Entamoeba histolytica it was 51.3 nM; in the assay on Giardia intestinalis, 44.2 nM.

On to `COC(=O)c1ccc2nc(SCCn3ccnc3)n(C)c2c1`, for which the figures for the IC50 in the assay on Trichomonas vaginalis, with Entamoeba histolytica and with Giardia intestinalis were 114 nM, 52.2 nM and 56.9 nM, respectively.

As to `COC(=O)c1cc2c(cc1Cl)nc(SCCn1ccnc1)n2C`, the IC50 was 86.9 nM in the assay with Trichomonas vaginalis, 42.8 nM in the assay with Entamoeba histolytica and 55.6 nM with Giardia intestinalis.

Values taken from ChEMBL document CHEMBL2401655, “Synthesis and antiprotozoal activity of novel 2-{[2-(1H-imidazol-1-yl)ethyl]sulfanyl}-1H-benzimidazole derivatives” (Bioorg Med Chem Lett, 2013).
